Assay results: patent publication US8377922B2, “Benzazepinone compound” (Ube Industries, Ltd., priority 2007, dated 2013)
Structures can show the parent of a compound that is named as a salt.

Tests used:
[1] = tested on: αvβ6 expressed cells (HT-29 cells); assay: Cell adhesion test of αvβ6 expressed cell; type: cell-based; details: binding to human fibronectin, read-out: αvβ6 expressed cells adhesion inhibiting IC50 value
Procedure: The experiment was carried out by partially modifying the method of Goodman et al. (J. Med. Chem., 45, 1045 (2002)).
Human fibronectin (available from CHEMICON) was adjusted to […] with PBS. This was applied on the 96-well plate (MS9586F, available from SUMIRON) with 100 μL/well, coating was carried out at room temperature for 1 hour, and the coating solution was removed and dried. Thereafter, a blocking treatment was carried out with 1.0% BSA dissolved in DMEM for 1 hour, and washed with PBS, and this was used as a coating plate in the adhesion test. HT-29 cells (available from Dainippon Sumitomo Pharma Co., Ltd.) cultured in McCoy's 5A medium containing 10% FBS were detached by using trypsin-ethylenediamine tetraacetic acid, washed with PBS and recovered. Then, the cells were suspended in DMEM to prepare a HT-29 cells suspension. DMEM solution containing the HT-29 cells and a compound to be tested were each added to human fibronectin coating plates each in an amount of 50 μL/well to start the adhesion test.
The adhesion test was carried out in a 5% carbonic acid gas incubator (37° C.) for 2 hours. After completion of the adhesion test, the supernatant was removed by aspiration, and the plates were washed with PBS. Then, Crystal violet staining was carried out, and the number of cells was measured. A concentration (IC50 value) of the compound to be tested necessary for inhibiting 50% of binding to human fibronectin was calculated by using EXSAS (available from Arm Systex Co., Ltd.).

[2] = tested on: αvβ3 expressed cells (HUVEC); assay: Cell adhesion test of αvβ3 expressed cell; type: cell-based; details: binding to human vitronectin, 50% human serum-containing DMEM, read-out: αvβ3 expressed cells adhesion inhibiting IC50 value
Procedure: The experiment was carried out by partially modifying the method of Juliano et al. (Exp. Cell Res., 225(1), 132 (1996)).
Human vitronectin (available from CHEMICON) was adjusted to 10 μg/mL with phosphate buffered physiological saline (hereinafter abbreviated as PBS). This was applied onto the 96-well plate (MS9586F, available from SUMIRON) with 100 μL/well, coating was carried out at room temperature for 1 hour, and the coating solution was removed and the plate was dried. Thereafter, blocking treatment was carried out with 1.0% BSA dissolved in Dulbecco's Modified Eagle Medium (hereinafter abbreviated as DMEM) for 1 hour, washed with PBS, and the resulting material was used for the adhesion test as a coating plate. HUVEC (human umbilical endothelial cells) (available from Clonetics Corp.) cultured in endothelian cell basal medium EBM2 (available from Clonetics Corp.) containing EGM-2 SingleQuot Kit suppi. & growth factors EGM2 (available from Clonetics Corp.) and 10% fetal bovine serum (hereinafter abbreviated as FBS) were detached by using trypsin-ethylenediamine tetraacetic acid, washed by using PBS and recovered, and then, suspended in 50% human serum-containing DMEM to prepare cell suspension of HUVEC. […]
The adhesion test was carried out in a 5% carbonic acid gas incubator (37° C.) for 1 hour. […] Crystal violet staining was carried out, and the number of stained cells was measured. […]

Row | Compound | IC50 [1] [nM] | IC50 [2] [nM]
1 | CNc1cccc(CCOc2ccc3c(c2)CN(CC(F)(F)F)C(=O)C(CC(=O)O)C3)n1 (racemic) [Compound A, 8-[2-[6-(methylamino)-pyridin-2-yl]-1-ethoxy]-3-oxo-2-(2,2,2-trifluoroethyl)-2,3,4,5-tetrahydro-1H-2-benz-azepin-4-acetic acid, reference compound] | > 100000 | 
2 | O=C(O)CC1Cc2ccc(OCCc3cn4c(n3)NCCC4)cc2CN(CC(F)(F)F)C1=O (stereo not shown) [Example 2, 3-oxo-8-[2-(5,6,7,8-tetrahydroimidazo[1,2-a]pyrimidin-2-yl)ethoxy]-2-(2,2,2-tri-fluoroethyl)-2,3,4,5-tetrahydro-1H-2-benzazepin-4-acetic acid trifluoroacetate] | 441 | 61
3 | O=C(O)C[C@@H]1Cc2ccc(OCCc3cn4c(n3)NCCC4)cc2CN(CC(F)(F)F)C1=O [Example 4, (4S)-3-oxo-8-[2-(5,6,7,8-tetrahydroimidazo[1,2-a]pyrimidin-2-yl)ethoxy]-2-(2,2,2-trifluoroethyl)-2,3,4,5-tetrahydro-1H-2-benzazepin-4-acetic acid] | 296 | 
